69 molecules from patent US7439366B2, “Phenacylamine derivatives, process for their production and pesticides containing them” (Ishihara Sangyo Kaisha Ltd., priority 2000, dated 2008) can be followed below.

The subject of the assay is southern root-knot nematode (Meloidgyne incognita). Briefly: Test on southern root-knot nematode (soil treatment, tomato seedling, root knot index). The format is in vivo. The following applies: 7 ml of 1600 ppm chemical solution mixed into 300 ml contaminated soil; tomato seedling in 2-leaf stage; three to four weeks after transplantation. Further details: key: 0: No knot was formed; 1: Knots were formed to a slight degree; 2: Knots were formed to a moderate degree; 3: Knots were formed to a heavy degree; 4: Knots were formed to the heaviest degree. Here is the method:
TEST EXAMPLE 1 Test on Southern Root-knot Nematode (Meloidgyne incognita) To 300 ml of the soil contaminated by southern root-knot nematode, 7 ml of a chemical solution having the concentration of the compound of the present invention adjusted to be 1600 ppm, was poured, followed by mixing so that the compound was uniformly dispersed. The treated soil was put into a pot (diameter: 9 cm, height: 8 cm), and then a tomato seedling in 2-leaf stage was transplanted and placed in a greenhouse. After three to four weeks from the transplantation of the tomato, the root knot index was determined based on the following standards. [table]
`CCC(C)(NC(=O)c1ccccc1F)C(=O)c1ccc(Cl)cc1` (racemic) [1-51]: the root knot index is on record as 1. The figure for `CCC(C)(NC(=O)c1c(F)cccc1F)C(=O)c1ccc(Cl)cc1` (racemic) [1-151] is 1.

`CC(C)(NC(=O)c1ccccc1F)C(=O)c1ccccc1` [1-1] had a root knot index of 1. On to `CC(C)(NC(=O)c1c(F)cccc1F)C(=O)c1ccccc1` [1-4], for which the root knot index came to 1. `CC(C)(NC(=O)c1ccccc1Br)C(=O)c1ccccc1` [1-17] returned a root knot index of 1. Under `Cc1ccccc1C(=O)NC(C)(C)C(=O)c1ccccc1` [1-18] stands 1.

`Cc1ccc(C(=O)NC(C)(C)C(=O)c2ccccc2)cc1` [1-19] showed a root knot index of 1. The molecule `CC(C)(NC(=O)c1ccccc1C(F)(F)F)C(=O)c1ccccc1` [1-24] returned a root knot index of 1. The figure for `CC(C)(NC(=O)c1ccc(C(F)(F)F)cc1)C(=O)c1ccccc1` [1-28] is 1; for `CSc1ccccc1C(=O)NC(C)(C)C(=O)c1ccccc1` [1-31] it is 1. `CC(C)(NC(=O)c1ccccc1[N+](=O)[O-])C(=O)c1ccccc1` [1-38] returned a root knot index of 1. The figure for `CC(C)(NC(=O)c1ccccc1)C(=O)c1ccc(Cl)cc1` [1-49] is 1; for `CC(C)(NC(=O)c1ccccc1F)C(=O)c1ccc(Cl)cc1` [1-50] it is 1. The figure for `CC(C)(NC(=O)c1ccccc1Br)C(=O)c1ccc(Cl)cc1` [1-64] is 1; for `Cc1ccccc1C(=O)NC(C)(C)C(=O)c1ccc(Cl)cc1` [1-65] it is 1; for `CC(C)(NC(=O)c1ccccc1C(F)(F)F)C(=O)c1ccc(Cl)cc1` [1-70] it is 1. In the case of `CC(C)(NC(=O)c1ccccc1F)C(=O)c1ccc(Cl)c(Cl)c1` [1-77], the root knot index amounted to 1. For the molecule `CCc1ccc(C(=O)C(C)(C)NC(=O)c2ccccc2Cl)cc1` [1-83], the root knot index stood at 1.

`COc1ccc(C(=O)C(C)(C)NC(=O)c2ccccc2Cl)cc1` [1-93] yielded a root knot index of 1. Under `CC(C)(NC(=O)c1ccccc1Cl)C(=O)c1ccc(OC(F)F)cc1` [1-95] stands 1; under `CC(C)(NC(=O)c1ccc(F)cc1F)C(=O)c1ccccc1` [1-125], 1; under `CC(C)(NC(=O)c1c(F)cccc1F)C(=O)c1cccc(F)c1` [1-126], 1. Under `CC(C)(NC(=O)c1cccc(F)c1F)C(=O)c1ccc(F)cc1` [1-127] stands 1; under `CC(C)(NC(=O)c1c(F)cccc1F)C(=O)c1ccc(F)cc1` [1-128], 1. The figure for `CC(C)(NC(=O)c1ccccc1F)C(=O)c1ccc(F)c(F)c1` [1-130] is 1; for `CC(C)(NC(=O)c1ccccc1Cl)C(=O)c1ccc(F)c(F)c1` [1-131] it is 1; for `CC(C)(NC(=O)c1ccccc1C(F)(F)F)C(=O)c1ccc(F)c(F)c1` [1-132] it is 1. Molecule `CC(C)(NC(=O)c1c(F)cccc1F)C(=O)c1ccc(F)c(F)c1` [1-133] gave a root knot index of 1. The figure for `CC(C)(NC(=O)c1c(F)cccc1F)C(=O)c1ccccc1Cl` [1-134] is 1; for `CC(C)(NC(=O)c1c(F)cccc1F)C(=O)c1cccc(Cl)c1` [1-135] it is 1; for `CC(C)(NC(=O)c1ccccc1[N+](=O)[O-])C(=O)c1ccc(Cl)cc1` [1-136] it is 1.

`CC(C)(NC(=O)c1ccc(F)cc1Cl)C(=O)c1ccc(Cl)cc1` [1-138] gave a root knot index of 1. For the molecule `CC(C)(NC(=O)c1cccc(F)c1F)C(=O)c1ccc(Cl)cc1` [1-139], the root knot index amounted to 1.

As to `CC(C)(NC(=O)c1ccc(F)cc1F)C(=O)c1ccc(Cl)cc1` [1-140], the root knot index is 1. The figure for `CC(C)(NC(=O)c1cc(F)ccc1F)C(=O)c1ccc(Cl)cc1` [1-141] is 1; for `CC(C)(NC(=O)c1c(F)cccc1Cl)C(=O)c1ccc(Cl)cc1` [1-142] it is 1; for `CC(C)(NC(=O)c1c(F)cccc1F)C(=O)c1ccc(Cl)cc1Cl` [1-143] it is 1. Under `CC(C)(NC(=O)c1c(F)cccc1F)C(=O)c1ccc(Cl)c(Cl)c1` [1-147] stands 1; under `CC(C)(NC(=O)c1ccccc1Cl)C(=O)c1ccc(Br)cc1` [1-155], 1. Consider `CC(C)(NC(=O)c1c(F)cccc1F)C(=O)c1ccc(Br)cc1` [1-157], for which the root knot index stood at 1. In turn, `CC(C)(NC(=O)c1ccccc1F)C(=O)c1ccc(Br)cc1` [1-158] had a root knot index of 1. The figure for `CC(C)(NC(=O)c1cccc(F)c1F)C(=O)c1ccc(Br)cc1` [1-159] is 1; for `CC(C)(NC(=O)c1ccccc1F)C(=O)c1ccc(I)cc1` [1-160] it is 1. For `CC(C)(NC(=O)c1ccccc1C(F)(F)F)C(=O)c1ccc(I)cc1` [1-161], the root knot index was 1. Molecule `CC(C)(NC(=O)c1c(F)cccc1F)C(=O)c1ccc(I)cc1` [1-162] came in with a root knot index of 1. The figure for `Cc1ccc(C(=O)C(C)(C)NC(=O)c2c(F)cccc2F)cc1` [1-163] is 1; for `CCc1ccc(C(=O)C(C)(C)NC(=O)c2c(F)cccc2F)cc1` [1-164] it is 1; for `CC(C)(NC(=O)c1c(F)cccc1F)C(=O)c1ccc(C(F)(F)F)cc1` [1-166] it is 1.

`CC(C)(NC(=O)c1ccccc1F)C(=O)c1ccc(C(F)(F)F)cc1` [1-167]: the root knot index worked out at 1.

Molecule `COc1ccc(C(=O)C(C)(C)NC(=O)c2c(F)cccc2F)cc1` [1-168] came in with a root knot index of 1.

`CCOc1ccc(C(=O)C(C)(C)NC(=O)c2c(F)cccc2F)cc1` [1-169] gave a root knot index of 1.

In the case of `CC(C)(NC(=O)c1ccccc1F)C(=O)c1ccc(OC(F)F)cc1` [1-171], the root knot index was 1. Under `CC(C)(NC(=O)c1c(F)cccc1F)C(=O)c1ccc(OC(F)F)cc1` [1-172] stands 1; under `CC(C)(NC(=O)c1ccccc1F)C(=O)c1ccc(OCC(F)(F)F)cc1` [1-173], 1. As for `CC(C)(NC(=O)c1c(F)cccc1F)C(=O)c1ccc(OCC(F)(F)F)cc1` [1-174], the root knot index is given as 1. The figure for `CC(C)(NC(=O)c1ccccc1F)C(=O)c1ccc(OC(F)(F)C(F)F)cc1` [1-175] is 1; for `CC(C)(NC(=O)c1ccccc1Cl)C(=O)c1ccc(OC(F)(F)C(F)F)cc1` [1-176] it is 1. Molecule `CC(C)(NC(=O)c1c(F)cccc1F)C(=O)c1ccc(OC(F)(F)C(F)F)cc1` [1-177] returned a root knot index of 1. Under `CC(C)(NC(=O)c1ccccc1C(F)(F)F)C(=O)c1ccc(OC(F)(F)C(F)F)cc1` [1-178] stands 1; under `CC(C)(NC(=O)c1ccccc1F)C(=O)c1ccc(OCC(F)(F)C(F)(F)F)cc1` [1-179], 1. `CC(C)(NC(=O)c1c(F)cccc1F)C(=O)c1ccc(OCC(F)(F)C(F)(F)F)cc1` [1-180] displayed a root knot index of 1. Take `CC(C)(NC(=O)c1c(F)cccc1F)C(=O)c1ccc(Oc2ccc(C(F)(F)F)cn2)cc1` [1-211]: the root knot index is 1. Molecule `CSc1ccc(C(=O)C(C)(C)NC(=O)c2c(F)cccc2F)cc1` [1-212] gave a root knot index of 1. The figure for `CC(C)(NC(=O)c1c(F)cccc1F)C(=O)c1ccc(S(C)(=O)=O)cc1` [1-213] is 1. Under `CC(C)(NC(=O)c1cccnc1Cl)C(=O)c1ccccc1` [2-2] stands 1. As for `CC(C)(NC(=O)c1ccccc1Cl)C(=O)c1ccccc1` [Compound No. 1-5], the root knot index was found to be 1. The figure for `CN(C(=O)c1ccccc1C(F)(F)F)C(C)(C)C(=O)c1ccccc1` [Compound No. 1-27, N-methyl-N-[(1,1-dimethyl)phenacyl]-2-trifluoromethylbenzamide] is 1; for `CC(C)(NC(=O)c1ccccc1Cl)C(=O)c1ccc(Cl)cc1` [Compound No. 1-54, 2-chloro-N-[(4′-chloro-1,1-dimethyl)phenacyl]benzamide] it is 1; for `CCc1ccc(C(=O)C(C)(C)NC(=O)c2cc(Cl)cc(Cl)c2)cc1` [Compound No. 1-84, 3,5-dichloro-N-[(4′-ethyl-1,1-dimethyl)phenacyl]benzamide] it is 1.
